Results as given in patent US20070259837A1, “Use of Non-Glucocorticoid Steroids for the Treatment of Muscular Dystrophy” (SANTHERA PHARMACEUTICALS (SCHWEIZ) AG, priority 2004, published 2007).
Where two headings read alike, the source gives them in different places.

Test system: utrophin protein in human muscle cells derived from DMD patients
Assay: Cell-based ELISA for normalized utrophin protein level in primary human myotube cultures
Conditions: for % UTR vs. PDN (normalized utrophin protein as % of PDN-treated sister cultures): same experiment; for activity at 0.5 µM: Myotube, read-out: % UTR vs. DMSO (normalized utrophin protein over DMSO-solvent treated control)
Experimental: The method used to detect and determine utrophin-inducing activity of non-glucocorticoid steroids has been described previously (Courdier-Fruh, I., Barman, L., Briguet, A. & Meier, T.; 2002, Neuromuscul. Disord.; 12 Suppl:S95). Briefly, primary human muscle cell cultures were prepared according to standard protocols (Askanas V, Kwan H, Alvarez R B, Engel W K, Kobayashi T, Martinuzzi A, Hawkins E F., 1987, J Neurocytol., 16:523-537). Test compounds and the glucocorticoid 6α-methylprednisolone-21 sodium succinate (Pharmacia & Upjohn; Solu-Medrol®, PDN) as reference compound were applied at 500 nM final concentration as soon as myoblasts started to differentiate into myotubes. Incubation with the test compound was ended as soon as well differentiated myotubes have formed, typically resulting in an incubation time with a test compound for 3-7 days.
Normalized concentrations of utrophin protein in human muscle cells cultured in microtiter plates were determined by a cell-based enzyme-linked immunosorbent assay (ELISA) procedure that allows a successive readout for the cell density and utrophin protein level. For calibration, the cell density and differentiation was determined by absorbance measurements of the total dehydrogenase enzyme activity in each well using the colorimetric CellTiter 96®AQ One Solution Reagent Proliferation Assay (Promega) according to the manufacturer's recommendation. Subsequently, cells were fixed, washed, permeabilized with 0.5% (v/v) Triton X-100 and unspecific antibody binding-sites were blocked by standard procedures. Utrophin protein levels were determined immunologically with utrophin-specific primary antibodies (mouse monoclonal antibody to the amino terminal portion of utrophin, NCL-DRP2, Novocastra Laboratories) and with appropriate peroxidase-coupled secondary antibodies using QuantaBlu™ Fluorogenic Peroxidase Substrate Kit (Pierce) for detection. Fluorescence measurements were carried out with a multilabel counter (Wallac) at λex=325 nm and at λem=420 nm. The primary readout of this signal is presented in arbitrary units. For calibration, the arbitrary units representing the relative utrophin protein content of each well were divided by the corresponding cell-titer absorbance value to correct for cell density. For comparison between experiments, the cell-titer corrected readout for utrophin protein content in each well was expressed in percent of solvent treated control cultures (set to 100%). PDN was included in all experiments as reference glucocorticoid, N=3-5 for each compound tested.
Non-glucocorticoid test compounds, applied in a concentration of 500 nM, were regarded as “positive” in case the increase in the level of utrophin protein was at least 20% (mean value) over control cultures treated with the appropriate dilution of DMSO solvent as control and containing no test compound.
A range of different pharmaceutical compounds were tested for their ability to increase levels of utrophin protein in primary human myotube cultures. The cell-based ELISA protocol used to detect the level of utrophin protein is provided above and described in Courdier-Fruh, I., Barman, L., Briguet, A. & Meier, T, 2002, Neuromuscul. Disord.: 12, Suppl:S95. Briefly, fixed and permeabilized human muscle cells derived from DMD patients and cultured in 96-well cell culture plates were incubated with antibodies specific for utrophin at a dilution of 1:1'000 in blocking solution (phosphate buffered saline (PBS) supplemented with 2% fetal calf serum and 1% bovine serum albumin) for 10-15 hours at 4° C. Following several washing steps with 0.1% Triton X-100 in PBS, peroxidase-coupled secondary antibodies diluted 1:3'000 in blocking solution were applied in each well for 1-2 hours at room temperature. Signal detection, data acquisition and normalization was performed as described above and in Courdier-Fruh, I., Barman, L., Briguet, A. & Meier, T, 2002, Neuromuscul. Disord.: 12, Suppl:S95. […]

[1] = 500 nM compound, human muscle cultures, mean value, N=3-6

COC(=O)CCC(=O)O[C@H]1CC[C@]2(C)C3C(=O)[C@@H](O)[C@]4(C)C5[C@H](C[C@H]4[C@@H]3CC[C@H]2C1)O[C@]1(CCC(C)CO1)[C@H]5C (stereo partly drawn) [Example 26]
% UTR vs. PDN (normalized utrophin protein as % of PDN-treated sister cultures) [1]: 98% | activity at 0.5 µM (Homo sapiens): 123%

CC(=O)O[C@H]1CC[C@]2(C)C3C(=O)C[C@@]4(C)[C@H](C(C)CCC(=O)O)CC[C@]4(C)C3C(=O)CC2C1(C)C (stereo partly drawn) [Example 14]
% UTR vs. PDN (normalized utrophin protein as % of PDN-treated sister cultures) [1]: 92% | activity at 0.5 µM (Homo sapiens): 115%

C[C@]12C=CC(=O)C=C1CCC1C2=CC[C@]2(C)C(C(=O)CN3CCN(c4cc(N5CCCC5)nc(N5CCCC5)n4)CC3)CCC12.O=C(O)/C=C\C(=O)O (stereo partly drawn) [Example 51]
% UTR vs. PDN (normalized utrophin protein as % of PDN-treated sister cultures) [1]: 113% | activity at 0.5 µM (Homo sapiens): 143%

CC(=O)O[C@H]1CC[C@]2(C)C3=CC[C@]4(C)C(C(C)=O)=CCC4C3CC[C@H]2C1 (stereo partly drawn) [Example 55]
% UTR vs. PDN (normalized utrophin protein as % of PDN-treated sister cultures) [1]: 107% | activity at 0.5 µM (Homo sapiens): 125%

CC(=O)O[C@H]1CC[C@]2(C)C3C=C[C@]4(C)C5[C@H](C[C@H]4[C@@H]3CC[C@H]2C1)O[C@]1(CCC(C)CO1)[C@H]5C (stereo partly drawn) [Example 25]
% UTR vs. PDN (normalized utrophin protein as % of PDN-treated sister cultures) [1]: 102% | activity at 0.5 µM (Homo sapiens): 129%

C[C@]12CCC3c4ccc(O)cc4CCC3C1CC[C@@H]2O (stereo partly drawn) [Example 71, Estradiol]
% UTR vs. PDN (normalized utrophin protein as % of PDN-treated sister cultures) [1]: 105% | activity at 0.5 µM [1]: 136%

CC(=O)C1CCC2C3C[C@@H]4O[C@@]45C[C@@H](O)CC[C@]5(C)C3CC[C@]12C (stereo partly drawn) [Example 64]
% UTR vs. PDN (normalized utrophin protein as % of PDN-treated sister cultures) [1]: 97% | activity at 0.5 µM (Homo sapiens): 127%

CC(C)=CCCC(C)[C@H]1CC[C@@]2(C)C3=C(CC[C@]12C)[C@@]1(C)CC[C@H](O)C(C)(C)C1CC3 (stereo partly drawn) [Example 37, Lanosterol]
% UTR vs. PDN (normalized utrophin protein as % of PDN-treated sister cultures) [1]: 102% | activity at 0.5 µM (Homo sapiens): 123%

C[C@]12CC(=O)C3C(CC[C@@H]4C[C@H](O)CC[C@]34C)C1CC[C@]2(O)C1(CO)OCCO1 (stereo partly drawn) [Example 70]
% UTR vs. PDN (normalized utrophin protein as % of PDN-treated sister cultures) [1]: 94% | activity at 0.5 µM (Homo sapiens): 122%

C[C@]12CCC3c4ccc(OC(=O)c5ccccc5)cc4CCC3C1CCC2=O (stereo partly drawn) [Example 74]
% UTR vs. PDN (normalized utrophin protein as % of PDN-treated sister cultures) [1]: 103% | activity at 0.5 µM (Homo sapiens): 124%

CC(=O)OCC(=O)[C@H]1CCC2C3CCC4=CC(=O)CC[C@]4(C)C3CC[C@@]21C (stereo partly drawn) [Example 67]
% UTR vs. PDN (normalized utrophin protein as % of PDN-treated sister cultures) [1]: 96% | activity at 0.5 µM [1]: 120%

CC(=O)OCC(=O)[C@@]12O[C@@H]1CC1C3CC[C@@H]4C[C@H](O)CC[C@]4(C)C3CC[C@@]12C (stereo partly drawn) [Example 68]
% UTR vs. PDN (normalized utrophin protein as % of PDN-treated sister cultures) [1]: 95% | activity at 0.5 µM (Homo sapiens): 125%

C[C@]12CCC3C(CC[C@]4(O)C[C@@H](O)CC[C@]34C=O)[C@@]1(O)CCC2C1=CC(=O)OC1 (stereo partly drawn) [Example 82]
% UTR vs. PDN (normalized utrophin protein as % of PDN-treated sister cultures) [1]: 101% | activity at 0.5 µM (Homo sapiens): 122%

C[C@]12C[C@@H](O)C3C(CC[C@@H]4C[C@@H](O)CC[C@]34C)C1=CCC2C1=CC(=O)OC1 (stereo partly drawn) [Example 85]
% UTR vs. PDN (normalized utrophin protein as % of PDN-treated sister cultures) [1]: 99% | activity at 0.5 µM (Homo sapiens): 120%

CC(=O)[C@@]1(O)CCC2C3CCC4=CC(=O)CC[C@]4(C)C3CC[C@@]21C (stereo partly drawn) [Example 66]
% UTR vs. PDN (normalized utrophin protein as % of PDN-treated sister cultures) [1]: 97% | activity at 0.5 µM [1]: 127%

C#C[C@]1(O)CCC2C3CCC4=CC(=O)CC[C@@H]4C3CC[C@@]21CC (stereo partly drawn) [Example 41, Norgestrel]
% UTR vs. PDN (normalized utrophin protein as % of PDN-treated sister cultures) [1]: 103% | activity at 0.5 µM [1]: 130%

CC1CC[C@@]2(OC1)O[C@H]1C[C@H]3[C@@H]4CC[C@H]5C[C@@H](O)CC[C@]5(C)C4CC(=O)[C@]3(C)C1[C@@H]2C (stereo partly drawn) [Example 27]
% UTR vs. PDN (normalized utrophin protein as % of PDN-treated sister cultures) [1]: 97% | activity at 0.5 µM (Homo sapiens): 122%

CC(=O)O[C@@H]1C[C@]2(C)C(C3=CC(=O)OC3)CC[C@]2(O)C2CC[C@@H]3C[C@@H](O)CC[C@]3(C)C21 (stereo partly drawn) [Example 83]
% UTR vs. PDN (normalized utrophin protein as % of PDN-treated sister cultures) [1]: 99% | activity at 0.5 µM (Homo sapiens): 121%

CC(C)CCCC(C)[C@H]1CCC2C3C(=O)C=C4C[C@@H](O)CC[C@]4(C)C3CC[C@@]21C (stereo partly drawn) [Example 31]
% UTR vs. PDN (normalized utrophin protein as % of PDN-treated sister cultures) [1]: 109% | activity at 0.5 µM (Homo sapiens): 137%

CC(=O)Oc1ccc2c(c1)CCC1C2CC[C@]2(C)C(=O)CCC12 (stereo partly drawn) [Example 76, Estrone acetate]
% UTR vs. PDN (normalized utrophin protein as % of PDN-treated sister cultures) [1]: 102% | activity at 0.5 µM (Homo sapiens): 129%

CC(C)CCCC(C)[C@H]1CCC2C3CC[C@H]4C[C@H](O)CC[C@]4(C)C3CC[C@@]21C (stereo partly drawn) [Example 34]
% UTR vs. PDN (normalized utrophin protein as % of PDN-treated sister cultures) [1]: 97% | activity at 0.5 µM (Homo sapiens): 125%

C[C@]12CC(=O)C3C(CC[C@H]4C[C@@H](O)CC[C@]34C)C1CCC2=O (stereo partly drawn) [Example 49]
% UTR vs. PDN (normalized utrophin protein as % of PDN-treated sister cultures) [1]: 97% | activity at 0.5 µM (Homo sapiens): 127%

CC1CC[C@@]2(OC1)O[C@H]1C[C@H]3[C@@H]4CC[C@H]5C[C@@H](O)CC[C@]5(C)C4CC[C@]3(C)C1[C@@H]2C (stereo partly drawn) [Example 29]
% UTR vs. PDN (normalized utrophin protein as % of PDN-treated sister cultures) [1]: 91% | activity at 0.5 µM (Homo sapiens): 120%

CCC(=O)Oc1ccc2c(c1)CCC1C2CC[C@@]2(C)C1C[C@@H](OC(=O)CC)[C@@H]2OC(=O)CC (stereo partly drawn) [Example 75]
% UTR vs. PDN (normalized utrophin protein as % of PDN-treated sister cultures) [1]: 102% | activity at 0.5 µM (Homo sapiens): 131%

CC(=O)O[C@H]1CC[C@]2(C)C3C[C@@H](O)[C@]4(C)C5[C@H](C[C@H]4[C@@H]3CC[C@H]2C1)O[C@]1(CCC(C)CO1)[C@H]5C (stereo partly drawn) [Example 21]
% UTR vs. PDN (normalized utrophin protein as % of PDN-treated sister cultures) [1]: 105% | activity at 0.5 µM (Homo sapiens): 130%

CC(=O)O[C@H]1CC[C@]2(C)C3=CC(=O)[C@]4(C)C5[C@H](C[C@H]4[C@@H]3CC[C@H]2C1)O[C@]1(CCC(C)CO1)[C@H]5C (stereo partly drawn) [Example 23]
% UTR vs. PDN (normalized utrophin protein as % of PDN-treated sister cultures) [1]: 103% | activity at 0.5 µM (Homo sapiens): 129%

CC(=O)OCC(=O)[C@H]1CCC2C3CC[C@@H]4C[C@H](OC(C)=O)CC[C@]4(C)C3[C@@H](O)C[C@@]21C (stereo partly drawn) [Example 52]
% UTR vs. PDN (normalized utrophin protein as % of PDN-treated sister cultures) [1]: 112% | activity at 0.5 µM (Homo sapiens): 145%

CC(CCC(=O)O)C1CCC2C3C(=O)C[C@@H]4CC(=O)CC[C@]4(C)C3CC(=O)[C@]12C (stereo partly drawn) [Example 15]
% UTR vs. PDN (normalized utrophin protein as % of PDN-treated sister cultures) [1]: 92% | activity at 0.5 µM [1]: 117%

C[C@]12CC[C@H](OC(=O)c3ccccc3)CC1=CCC1C2CC[C@@]2(C)C1CC[C@@H]2NC(=O)c1ccccc1 (stereo partly drawn) [Example 39]
% UTR vs. PDN (normalized utrophin protein as % of PDN-treated sister cultures) [1]: 106% | activity at 0.5 µM (Homo sapiens): 121%

CC(=O)C1CCC2C3CC[C@H]4C[C@@H](O)CC[C@]4(C)C3CC[C@]12C (stereo partly drawn) [Example 62]
% UTR vs. PDN (normalized utrophin protein as % of PDN-treated sister cultures) [1]: 99% | activity at 0.5 µM (Homo sapiens): 129%
